Results: article PMC10056986 (Pharmaceuticals, 2023)
Where a name gives a salt, the structure may show the parent alone.

Assays:
5HT2A = 5HT2A (Homo sapiens, UniProt P28223); assay: cell-based; conditions: agonist mode; read-out: EC50
Alpha1a = Alpha1a (Homo sapiens, UniProt P35348); assay: cell-based; conditions: read-out: IC50
CB2 = CB2 (Homo sapiens, UniProt P34972); assay: cell-based; conditions: read-out: IC50
H2 = H2 (Homo sapiens, UniProt P25021); assay: cell-based; conditions: read-out: EC50
M2 = M2 (Homo sapiens, UniProt P08172); assay: cell-based
M3 = M3 (Homo sapiens, UniProt P20309); assay: cell-based
M1 = M1 (Homo sapiens, UniProt P11229); assay: cell-based
RSV long = assay: microbe, parasite or virus in culture; format: cell-based, respiratory syncytial virus; conditions: read-out: EC50 for Virus
in vitro [1] = assay: in vitro
HCV replicon 1b = assay: microbe, parasite or virus in culture; format: cell-based; conditions: Hepatitis C virus, read-out: EC50 for Virus
A/PR/8/34 (H1N1) = test system: A/PR/8/34 (H1N1); parameters: species or system BALB/c mice; conditions: mouse, in vivo
[2] = test system: Influenza virus A/California/2/2014 (H3N2); assay: microbe, parasite or virus in culture; format: cell-based; conditions: H3N2, MDCK, read-out: EC50 (mean ± SD)
[3] = test system: Influenza virus A/California/07/2009 (H1N1)pdm09; assay: microbe, parasite or virus in culture; format: cell-based; conditions: H1N1, MDCK, read-out: EC50 (mean ± SD)
[4] = Cytotoxicity in MDCK cells without viral infection; conditions: dog
AD2 [5] = format: cell-based, human
[6] = test system: influenza A virus WSN/33 (H1N1); parameters: species or system BALB/c mice; conditions: mouse, in vivo
CCKa = target: T1, CCKa (Homo sapiens, UniProt P32238); assay: cell-based; conditions: read-out: IC50
T1 sequence (P32238 1-428): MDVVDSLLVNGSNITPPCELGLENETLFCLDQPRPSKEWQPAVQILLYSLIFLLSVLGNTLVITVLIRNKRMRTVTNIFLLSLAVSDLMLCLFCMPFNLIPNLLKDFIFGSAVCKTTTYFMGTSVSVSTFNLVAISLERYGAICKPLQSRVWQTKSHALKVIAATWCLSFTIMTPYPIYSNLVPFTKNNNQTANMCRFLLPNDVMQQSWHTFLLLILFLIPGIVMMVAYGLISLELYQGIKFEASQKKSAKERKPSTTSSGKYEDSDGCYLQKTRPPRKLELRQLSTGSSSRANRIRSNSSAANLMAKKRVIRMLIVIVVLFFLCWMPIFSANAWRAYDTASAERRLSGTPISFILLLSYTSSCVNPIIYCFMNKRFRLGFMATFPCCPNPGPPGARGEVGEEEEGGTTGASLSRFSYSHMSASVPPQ

AD2 [7] = format: cell-based, human; conditions: read-out: EC50
in vitro [8] = conditions: rhesus monkey
HPIV-3 C243 = assay: microbe, parasite or virus in culture; format: cell-based, human parainfluenza virus type 3; conditions: Human respirovirus 3, LLC-MK2, read-out: EC50 for Virus

Sequence of Alpha1a (P35348 whole entry): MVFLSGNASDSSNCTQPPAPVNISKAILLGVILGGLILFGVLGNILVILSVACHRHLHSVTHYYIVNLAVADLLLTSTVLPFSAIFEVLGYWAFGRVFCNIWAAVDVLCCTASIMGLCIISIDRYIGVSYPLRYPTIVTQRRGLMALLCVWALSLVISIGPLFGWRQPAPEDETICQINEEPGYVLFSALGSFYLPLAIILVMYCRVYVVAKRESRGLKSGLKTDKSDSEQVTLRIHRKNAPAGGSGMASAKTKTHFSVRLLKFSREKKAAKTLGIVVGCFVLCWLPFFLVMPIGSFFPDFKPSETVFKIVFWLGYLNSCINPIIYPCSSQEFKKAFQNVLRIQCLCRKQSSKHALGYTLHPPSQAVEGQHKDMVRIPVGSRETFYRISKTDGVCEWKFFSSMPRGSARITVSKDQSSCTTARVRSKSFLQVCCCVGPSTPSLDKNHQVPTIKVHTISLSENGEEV
Sequence of 5HT2A (P28223 whole entry): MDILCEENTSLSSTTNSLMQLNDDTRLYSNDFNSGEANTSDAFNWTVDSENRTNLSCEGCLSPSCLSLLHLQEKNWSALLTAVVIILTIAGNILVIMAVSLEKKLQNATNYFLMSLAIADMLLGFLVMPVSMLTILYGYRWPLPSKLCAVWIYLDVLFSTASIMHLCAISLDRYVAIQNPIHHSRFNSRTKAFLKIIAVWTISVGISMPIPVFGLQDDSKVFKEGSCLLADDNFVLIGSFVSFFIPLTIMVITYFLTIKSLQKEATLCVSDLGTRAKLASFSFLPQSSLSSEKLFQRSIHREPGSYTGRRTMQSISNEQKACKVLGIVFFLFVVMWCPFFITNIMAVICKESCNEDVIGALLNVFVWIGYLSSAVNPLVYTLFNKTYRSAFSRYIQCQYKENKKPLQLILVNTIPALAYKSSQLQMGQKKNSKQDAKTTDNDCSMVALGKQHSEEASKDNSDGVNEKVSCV
Sequence of H2 (P25021 whole entry): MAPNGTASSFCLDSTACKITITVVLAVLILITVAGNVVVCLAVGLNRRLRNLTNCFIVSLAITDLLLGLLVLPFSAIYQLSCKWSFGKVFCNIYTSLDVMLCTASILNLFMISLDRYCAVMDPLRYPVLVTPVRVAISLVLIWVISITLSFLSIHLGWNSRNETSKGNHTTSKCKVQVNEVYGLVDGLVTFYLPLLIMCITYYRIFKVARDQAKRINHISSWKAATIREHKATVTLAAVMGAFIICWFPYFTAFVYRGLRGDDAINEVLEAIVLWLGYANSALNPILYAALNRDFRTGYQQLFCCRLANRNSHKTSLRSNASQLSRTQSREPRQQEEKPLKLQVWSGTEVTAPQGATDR
Sequence of M2 (P08172 whole entry): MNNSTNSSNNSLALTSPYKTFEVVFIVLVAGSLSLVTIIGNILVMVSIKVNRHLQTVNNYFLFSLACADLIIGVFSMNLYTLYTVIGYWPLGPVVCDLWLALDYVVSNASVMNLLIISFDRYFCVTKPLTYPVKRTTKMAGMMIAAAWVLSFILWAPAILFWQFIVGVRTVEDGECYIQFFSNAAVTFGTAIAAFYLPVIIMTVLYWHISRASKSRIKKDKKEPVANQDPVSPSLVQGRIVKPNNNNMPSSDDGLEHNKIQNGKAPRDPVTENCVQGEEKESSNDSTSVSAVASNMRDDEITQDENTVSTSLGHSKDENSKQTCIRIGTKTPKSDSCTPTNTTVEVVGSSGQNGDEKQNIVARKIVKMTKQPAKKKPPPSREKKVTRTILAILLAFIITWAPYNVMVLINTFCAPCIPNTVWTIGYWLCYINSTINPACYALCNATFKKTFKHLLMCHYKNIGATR
Sequence of CB2 (P34972 whole entry): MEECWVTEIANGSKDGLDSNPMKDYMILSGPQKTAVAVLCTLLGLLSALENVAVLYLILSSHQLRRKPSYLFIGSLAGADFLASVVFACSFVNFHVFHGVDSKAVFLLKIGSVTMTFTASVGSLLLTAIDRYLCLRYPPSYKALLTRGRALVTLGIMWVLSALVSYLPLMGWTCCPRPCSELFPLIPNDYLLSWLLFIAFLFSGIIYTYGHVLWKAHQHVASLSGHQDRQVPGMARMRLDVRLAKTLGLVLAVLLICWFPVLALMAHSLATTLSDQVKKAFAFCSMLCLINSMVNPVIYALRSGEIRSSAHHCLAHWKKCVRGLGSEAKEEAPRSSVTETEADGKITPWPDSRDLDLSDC
Sequence of M3 (P20309 whole entry): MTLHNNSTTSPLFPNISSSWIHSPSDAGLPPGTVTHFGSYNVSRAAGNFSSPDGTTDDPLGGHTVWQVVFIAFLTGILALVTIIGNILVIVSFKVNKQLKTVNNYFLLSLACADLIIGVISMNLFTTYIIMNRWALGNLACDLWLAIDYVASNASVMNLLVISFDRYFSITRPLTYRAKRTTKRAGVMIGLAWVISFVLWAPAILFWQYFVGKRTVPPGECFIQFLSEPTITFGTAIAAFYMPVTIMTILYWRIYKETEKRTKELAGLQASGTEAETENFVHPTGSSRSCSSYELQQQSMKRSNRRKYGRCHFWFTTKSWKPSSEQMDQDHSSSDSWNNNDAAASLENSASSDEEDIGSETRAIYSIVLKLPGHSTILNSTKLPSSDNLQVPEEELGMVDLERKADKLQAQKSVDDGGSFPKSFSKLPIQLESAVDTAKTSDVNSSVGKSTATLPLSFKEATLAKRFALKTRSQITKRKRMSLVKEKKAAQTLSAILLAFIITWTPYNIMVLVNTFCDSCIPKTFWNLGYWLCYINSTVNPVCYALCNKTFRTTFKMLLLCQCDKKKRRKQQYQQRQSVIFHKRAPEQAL
Sequence of M1 (P11229 whole entry): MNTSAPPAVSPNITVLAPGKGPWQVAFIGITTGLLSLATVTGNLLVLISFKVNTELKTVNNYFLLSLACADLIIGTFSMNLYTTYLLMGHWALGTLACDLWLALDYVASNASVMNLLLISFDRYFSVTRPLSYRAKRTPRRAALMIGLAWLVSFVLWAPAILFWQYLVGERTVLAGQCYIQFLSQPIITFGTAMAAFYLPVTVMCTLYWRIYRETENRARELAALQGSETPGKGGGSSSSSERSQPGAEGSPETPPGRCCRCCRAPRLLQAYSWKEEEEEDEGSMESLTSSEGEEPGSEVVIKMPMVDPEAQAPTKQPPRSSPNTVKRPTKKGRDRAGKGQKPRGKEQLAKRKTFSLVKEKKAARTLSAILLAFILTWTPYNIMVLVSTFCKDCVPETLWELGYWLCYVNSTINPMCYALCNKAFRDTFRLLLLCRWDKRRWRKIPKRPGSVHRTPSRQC

NCCc1c[nH]c2ccc(C(N)=O)cc12 [5-CT, reference compound]
EC50 (5HT2A): 9.35 nM

COc1ccccc1N1CCN(CCCNc2c(C)c(=O)n(C)c(=O)n2C)CC1 [5-Methylurapidil, reference compound]
IC50 (Alpha1a): 3.65 nM

COc1ccc(C(=O)c2c(C)n(CCN3CCOCC3)c3cc(I)ccc23)cc1 [AM630, reference compound]
IC50 (CB2): 234 nM

Cc1nc(N)sc1CCN [Amthamine dihydrobromide, reference compound]
EC50 (H2): 1340 nM

C#CCOC(=O)C1=CCCN(C)C1 [Arecaidine propargyl ester, reference compound]
EC50 (M2): 76.2 nM
EC50 (M3): 0.31 nM
EC50 (M1): 0.78 nM

O=c1n(Cc2nc3ccccc3n2CCCCO)c2cnccc2n1C1CC1 [BMS-433771, reference compound]
EC50 (RSV long): 14 nM

COC(=O)N[C@H](C(=O)N1CCC[C@H]1c1nc(-c2ccc(-c3ccc(-c4c[nH]c([C@@H]5CCCN5C(=O)[C@@H](NC(=O)OC)C(C)C)n4)cc3)cc2)c[nH]1)C(C)C [BMS-790052, reference compound]
CC50 (in vitro [1]): > 3 nM
EC50 (HCV replicon 1b): 0.021 nM

O=C1c2c(O)c(=O)ccn2N([C@@H]2c3ccccc3SCc3c2ccc(F)c3F)[C@@H]2COCCN12 [Baloxavir]
mortality rate (A/PR/8/34 (H1N1)): 40%
EC50 [2]: 0.61 ± 0.02 nM
EC50 [3]: 1.06 ± 0.22 nM
CC50 [4]: 14400 ± 1520 nM

Nc1nc2ccc(Cl)cc2c2nc(-c3ccco3)nn12 [CGS-15943, reference compound]
IC50 (AD2 [5]): 0.11 nM

NC(=O)c1nc(F)c[nH]c1=O [Favipiravir]
animals died (of n = 8) [6]: six
day on which body weight of surviving mice began to recover [6]: 9 days

CCCCCN(CCCCC)C(=O)C(CCC(=O)O)NC(=O)c1ccc(Cl)c(Cl)c1 (stereo not drawn) [Lorglumide, reference compound]
IC50 (CCKa): 256 nM

CCNC(=O)[C@H]1O[C@@H](n2cnc3c(N)ncnc32)[C@H](O)[C@@H]1O [NECA, reference compound]
EC50 (AD2 [7]): 27.8 nM

NC(=O)c1ncn([C@@H]2O[C@H](CO)[C@@H](O)[C@H]2O)n1 [Ribavirin, reference compound]
CC50 (in vitro [8]): > 100000 nM
EC50 (HPIV-3 C243): 20300 nM
